Assay results from US12692238B2, “Substituted pyridazinone herbicides” (FMC CORPORATION, priority 2020, dated 2026).

Experiments:
Format in all cases: in vivo
corn (Zea mays) [1] = test: Test A postemergence, corn; conditions: Zea mays, post-emergence, 240 h, 10 days; for Corn plant response rating (crop injury, 0 = no effect, 100 = complete kill) at 31 g/ha: 31 g ai/ha; for Corn plant response rating (crop injury, 0 = no effect, 100 = complete kill) at 125 g/ha: 125 g ai/ha
How it was run: (§1)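 Test chemicals, formulated in a non-phytotoxic solvent mixture with surfactant, are applied either as a directed preemergence soil spray or postemergence to seedlings at the one- to two-leaf stage. Injury is scored visually after 10 days, 0 = no effect to 100 = complete control.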

[2] = test system: oat, wild (wild oat, Avena fatua); test: Test A postemergence, oat, wild; conditions: 10 days
How it was run: as §1

[3] = test system: wheat (Triticum aestivum); test: Test A postemergence, wheat; conditions: Triticum aestivum, post-emergence, 240 h, 10 days, read-out: Plant response rating, Wheat; for plant injury at 31 g/ha: 31 g ai/ha, postemergence, 0 to 100 scale (0 no effect, 100 complete control); for plant injury at 125 g/ha: Postemergence, 125 g ai/ha, 0 to 100 scale
How it was run: as §1

[4] = test system: wheat (Triticum aestivum); test: Test A preemergence, wheat; conditions: 125 g ai/ha, 0 to 100 scale, 10 days
[5] = test system: goosegrass (Eleusine indica); test: Test A preemergence, goosegrass; conditions: 0 to 100 scale, 10 days
How it was run: as §1

[6] = test system: palmer amaranth (pigweed, palmer, Amaranthus palmeri); test: Test A postemergence, palmer amaranth; conditions: 10 days
How it was run: as §1

[7] = test system: palmer amaranth (pigweed, palmer, Amaranthus palmeri); test: Test A preemergence, palmer amaranth; conditions: 0 to 100 scale, 10 days
How it was run: as §1

kochia (Bassia scoparia) [8] = test: Test A postemergence, kochia; conditions: Bassia scoparia, post-emergence, 240 h, 10 days, read-out: Plant response rating, Kochia; for pest or weed control at 31 g/ha: 31 g ai/ha, postemergence, 0 to 100 scale (0 no effect, 100 complete control); for pest or weed control at 125 g/ha: Postemergence, 125 g ai/ha, 0 to 100 scale
How it was run: as §1

[9] = test system: horseweed (Erigeron canadensis); test: Test A postemergence, horseweed; conditions: 10 days
How it was run: as §1

[10] = test system: blackgrass (Alopecurus myosuroides); test: Test A preemergence, blackgrass; conditions: 0 to 100 scale, 10 days
How it was run: as §1

[11] = test system: oat, wild (wild oat, Avena fatua); test: Test A preemergence, oat, wild; conditions: 0 to 100 scale, 10 days
How it was run: as §1

kochia (Bassia scoparia) [12] = test: Test A preemergence, kochia; conditions: Bassia scoparia, pre-emergence, 240 h, 0 to 100 scale, 10 days, read-out: Plant response rating, Kochia; for pest or weed control at 31 g/ha: 31 g ai/ha; for pest or weed control at 125 g/ha: 125 g ai/ha
How it was run: as §1

corn (Zea mays) [13] = test: Test A preemergence, corn; conditions: 0 to 100 scale, 10 days
How it was run: as §1

[14] = test system: goosegrass (Eleusine indica); test: Test A postemergence, goosegrass; conditions: 10 days
How it was run: as §1

soybean (Glycine max) [15] = test: Test A preemergence, soybean; conditions: 0 to 100 scale, 10 days
How it was run: as §1

soybean (Glycine max) [16] = test: Test A postemergence, soybean; conditions: 10 days
How it was run: as §1

[17] = 31 g ai/ha, postemergence, 0 to 100 scale (0 no effect, 100 complete control)
[18] = Postemergence, 125 g ai/ha, 0 to 100 scale

Row | SMILES | Corn plant response rating (crop injury, 0 = no effect, 100 = complete kill) at 125 g/ha (corn (Zea mays) [1]; Postemergence, 0 to 100 scale) | Plant response rating, Oat, Wild [2, 17] | Plant response rating, Oat, Wild [2, 18] | plant injury at 31 g/ha [3] | plant injury at 125 g/ha [3] | Plant response rating, Wheat [4] | Plant response rating, Goosegrass ([5]; 31 g ai/ha) | Plant response rating, Goosegrass ([5]; 125 g ai/ha) | Plant response rating, Pigweed, Palmer [6, 17] | Plant response rating, Pigweed, Palmer [6, 18] | Plant response rating, Pigweed, Palmer ([7]; 31 g ai/ha) | Plant response rating, Pigweed, Palmer ([7]; 125 g ai/ha) | pest or weed control at 31 g/ha (kochia (Bassia scoparia) [8]) | pest or weed control at 125 g/ha (kochia (Bassia scoparia) [8]) | Plant response rating, Horseweed [9, 17] | Plant response rating, Horseweed [9, 18] | Plant response rating, Blackgrass ([10]; 31 g ai/ha) | Plant response rating, Blackgrass ([10]; 125 g ai/ha) | Plant response rating, Oat, Wild ([11]; 31 g ai/ha) | Plant response rating, Oat, Wild ([11]; 125 g ai/ha) | further results
1 | COC(=O)OCOc1c(Cl)nn(C)c(=O)c1-c1c2cc(C)ccc2cc2ccc(C)cc12 [Compound 8, [[3-chloro-5-(2,7-dimethyl-9-anthracenyl)-1,6-dihydro-1-methyl-6-oxo-4-pyridazinyl]oxy]methyl methyl carbonate] | 20% | 0 | 10 | 0% | 0% | 0 | 0 | 0 | 70 | 100 | 100 | 100 | 90% | 100% | 100 | 100 | 0 | 0 | 0 | 0 | Corn plant response rating (crop injury, 0 = no effect, 100 = complete kill) at 31 g/ha (corn (Zea mays) [1]; Postemergence, 0 to 100 scale): 0%; pest or weed control at 31 g/ha (kochia (Bassia scoparia) [12]): 60%; pest or weed control at 125 g/ha (kochia (Bassia scoparia) [12]): 100%; Plant response rating, Corn (corn (Zea mays) [13]; 31 g ai/ha): 0; Plant response rating, Corn (corn (Zea mays) [13]; 125 g ai/ha): 60; Plant response rating, Goosegrass [14, 17]: 0; Plant response rating, Goosegrass [14, 18]: 0; Plant response rating, Soybean (soybean (Glycine max) [15]; 31 g ai/ha): 0; Plant response rating, Soybean (soybean (Glycine max) [15]; 125 g ai/ha): 0; Plant response rating, Soybean (soybean (Glycine max) [16]; [17]): 40; Plant response rating, Soybean (soybean (Glycine max) [16]; [18]): 60
2 | Cc1ccc2cc3ccc(C)cc3c(-c3c(OCOC(=O)C(C)(C)C)c(Cl)nn(C)c3=O)c2c1 [Compound 9, [[3-chloro-5-(2,7-dimethyl-9-anthracenyl)-1,6-dihydro-1-methyl-6-oxo-4-pyridazinyl]oxy]methyl 2,2-dimethylpropanoate] | 20% | 0 | 0 | 0% | 0% | 0 | 10 | 10 | 80 | 80 | 40 | 100 | 70% | 90% | 100 | 100 | 0 | 0 | 0 | 0 | Corn plant response rating (crop injury, 0 = no effect, 100 = complete kill) at 31 g/ha (corn (Zea mays) [1]; Postemergence, 0 to 100 scale): 0%; pest or weed control at 31 g/ha (kochia (Bassia scoparia) [12]): 50%; pest or weed control at 125 g/ha (kochia (Bassia scoparia) [12]): 100%; Plant response rating, Corn (corn (Zea mays) [13]; 31 g ai/ha): 0; Plant response rating, Corn (corn (Zea mays) [13]; 125 g ai/ha): 0; Plant response rating, Goosegrass [14, 17]: 30; Plant response rating, Goosegrass [14, 18]: 30; Plant response rating, Soybean (soybean (Glycine max) [15]; 31 g ai/ha): 0; Plant response rating, Soybean (soybean (Glycine max) [15]; 125 g ai/ha): 0; Plant response rating, Soybean (soybean (Glycine max) [16]; [17]): 40; Plant response rating, Soybean (soybean (Glycine max) [16]; [18]): 60
3 | COC(=O)OCOc1c(C)nn(C)c(=O)c1-c1c2cc(C)ccc2cc2ccc(F)cc12 [Compound 15, [[5-(2-fluoro-7-methyl-9-anthracenyl)-1,6-dihydro-1,3-dimethyl-6-oxo-4-pyridazinyl]oxy]methyl methyl carbonate] | 50% | 20 | 40 | 0% | 0% | 0 | 50 | 90 | 100 | 100 | 100 | 100 | 100% | 100% | 100 | 100 | 30 | 10 | 20 | 20 | Corn plant response rating (crop injury, 0 = no effect, 100 = complete kill) at 31 g/ha (corn (Zea mays) [1]; postemergence, 0 to 100 scale (0 no effect, 100 complete control)): 0%; pest or weed control at 31 g/ha (kochia (Bassia scoparia) [12]): 90%; pest or weed control at 125 g/ha (kochia (Bassia scoparia) [12]): 100%; Plant response rating, Corn (corn (Zea mays) [13]; 31 g ai/ha): 0; Plant response rating, Corn (corn (Zea mays) [13]; 125 g ai/ha): 30; Plant response rating, Goosegrass [14, 17]: 30; Plant response rating, Goosegrass [14, 18]: 60; Plant response rating, Soybean (soybean (Glycine max) [15]; 31 g ai/ha): 0; Plant response rating, Soybean (soybean (Glycine max) [15]; 125 g ai/ha): 10; Plant response rating, Soybean (soybean (Glycine max) [16]; [17]): 80; Plant response rating, Soybean (soybean (Glycine max) [16]; [18]): 90
